Experimental data: article PMC6225302, “Depsidone Derivatives and a Cyclopeptide Produced by Marine Fungus Aspergillus unguis under Chemical Induction and by Its Plasma Induced Mutant” (Molecules : A Journal of Synthetic Chemistry and Natural …, 2018)

System: brine shrimp (Artemia salina) larva
Assay: Brine shrimp larva lethality test
Type: in vivo
Conditions: brine shrimp larvae, 24 h at 28 °C; read-out: Larvicidal Activity (LC50)
Experimental: Compounds 1‒10 were evaluated for larvicidality using the brine shrimp (Artemia salina) larva lethality test. 0.15 g of frozen eggs of brine shrimp larva (purchased from Aijia Aquarium Co., Zhanjiang, China) were activated at room temperature for 12 h. After activation, eggs were added to 1 L of artificial seawater (3% sea salt), ventilated with air for 420 mL/min, then kept at a brightness at 1000 lux and incubated at 28 °C for 24 h. After incubation, the larvae were induced to the top of the separating funnel by phototaxis, and the dead ones on bottom were discharged. Then, in each well of the 96-well plate, 1 μL of test compounds (in DMSO) with different concentrations and 99 μL of seawater containing 20‒30 live larvae were added. After incubation under light at 28 °C for 24 h, recorded the numbers of dead larvae. Finally, 10 μL of the Lucus reagent were added into each well and the total number of brine shrimp larva in the well were counted. DMSO and Hg(NO3)2 were used as blank control and positive control, respectively. Lethality rate (%)=(lethality of treatment−lethality of blank control)/survival rate of blank control×100%
The brine shrimp larva LC50 value is the concentration required to kill 50% of the larvae. Likewise, the LC50 was calculated using Origin 8.0 plotting and cubic polynomial regression.

With `O=[N+]([O-])[O-].O=[N+]([O-])[O-].[Hg+2]` [Hg(NO3)2, reference compound] as the compound, how does the LC50 read?
The LC50 was 77 µM.
